Data from patent US6806276B2, “2-oxoquinoline compounds and pharmaceutical uses thereof” (Japan Tobacco Inc., priority 1999, dated 2004).
Read-outs that look alike come from different tables or passages of the source.

Assays:
[1] = biological target: T1, human peripheral type cannabinoid receptor (hCB2) (Homo sapiens, UniProt P34972); experiment: Binding assay (in vitro), [3H]Win55212-2 displacement, membrane fractions of human CB2-CHO; conditions: for Ki: hCB2 expressed in CHO cells, [3H]Win55212-2 2 nM, 30° C. 90 minutes
T1 construct: expressed in transfected cells; host or cells: CHO cells
T1 sequence (P34972 whole entry): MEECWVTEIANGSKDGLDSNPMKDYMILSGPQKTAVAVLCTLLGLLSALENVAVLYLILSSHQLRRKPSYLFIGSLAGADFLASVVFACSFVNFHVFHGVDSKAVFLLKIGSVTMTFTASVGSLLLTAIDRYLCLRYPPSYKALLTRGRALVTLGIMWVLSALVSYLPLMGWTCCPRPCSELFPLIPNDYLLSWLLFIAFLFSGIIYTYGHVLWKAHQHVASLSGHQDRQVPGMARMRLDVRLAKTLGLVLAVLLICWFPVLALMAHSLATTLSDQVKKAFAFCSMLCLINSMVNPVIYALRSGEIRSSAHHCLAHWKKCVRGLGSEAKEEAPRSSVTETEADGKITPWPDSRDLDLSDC
Protocol: (§1) Membrane fractions of human central type cannabinoid receptor (human CB1-CHO, hereinafter called hCB1) and human peripheral type cannabinoid receptor (human CB2-CHO, hereinafter called hCB2) expressed in CHO cells were used as samples. The reference material (hCB1: 20 μg/ml, hCB2: 5 μg/ml), labeled ligand ([^3H]Win55212-2, 2 nM) and unlabeled ligand Win55212-2 or test compound were added to a 24-well round bottom plate, and the plate was incubated at 30° C. for 90 minutes. 50 mM Tris-HB55 containing 0.2% BSA was used as an assay buffer. After incubation, the mixture was filtered (Packard, Unifilter 24GF/B) and dried, and then a scintillation solution (Packard, Microsint-20) was added thereto to determine the radioactivity of the sample (Packard, Top count A9912V). Nonspecific binding was determined by the addition of excessive amount of Win55212-2 (10 μM), and specific binding was calculated by subtracting the nonspecific binding from total binding determined by the addition of the labeled ligand only. The test compound was dissolved in DMSO to make the final concentration in DMSO to be 0.1%. IC50 value was determined from the proportion of the bound test compound in the specific binding, and K1 value of the test compound was calculated from the ICso value and Kd value of [^3H]Win55212-2. K1 value for the central type receptors/K1 value for peripheral type receptors (C/S) was also calculated as an indicator of the selectivity of the test compound for peripheral type receptors.

[2] = biological target: T2, human central type cannabinoid receptor (hCB1) (Homo sapiens, UniProt P21554); experiment: Binding assay (in vitro), [3H]Win55212-2 displacement, membrane fractions of human CB1-CHO; conditions: hCB1 expressed in CHO cells, [3H]Win55212-2 2 nM, 30° C. 90 minutes
T2 construct: expressed in transfected cells; host or cells: CHO cells
T2 sequence (P21554 whole entry): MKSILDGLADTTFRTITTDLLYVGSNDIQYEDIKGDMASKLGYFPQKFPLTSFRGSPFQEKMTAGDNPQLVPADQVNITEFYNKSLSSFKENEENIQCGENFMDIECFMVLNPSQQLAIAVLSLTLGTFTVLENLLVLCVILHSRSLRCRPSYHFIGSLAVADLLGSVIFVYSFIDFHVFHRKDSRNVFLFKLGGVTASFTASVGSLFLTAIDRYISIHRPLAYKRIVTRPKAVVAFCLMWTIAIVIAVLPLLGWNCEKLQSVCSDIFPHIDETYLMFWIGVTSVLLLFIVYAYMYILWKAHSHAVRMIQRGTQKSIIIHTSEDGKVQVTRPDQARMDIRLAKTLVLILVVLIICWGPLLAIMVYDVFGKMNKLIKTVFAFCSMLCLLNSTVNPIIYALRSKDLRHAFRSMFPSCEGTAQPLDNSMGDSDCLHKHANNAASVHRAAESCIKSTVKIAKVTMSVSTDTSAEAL
Protocol: as §1

[3] = read-out: Ki value Peripheral type receptor (S)
[4] = read-out: Ki value Central type receptor (C)
[5] = Ki value Peripheral type receptor (S)
[6] = Ki value Central type receptor (C)
[7] = indicator of selectivity for peripheral type receptors

| SMILES | Ki [1, 3] [nM] | Ki [2, 4] [nM] | C/S (Ki central type receptors / Ki peripheral type receptors) [1] | Ki [1, 5] [nM] | Ki [2, 6] [nM] | C/S (Ki central type receptors / Ki peripheral type receptors) [1, 7] |
| --- | --- | --- | --- | --- | --- | --- |
| CCCCOc1c(OC)ccc2cc(CO)c(=O)[nH]c12 [Example 5-1, 8-butoxy-3-hydroxy methyl-7-methoxy-2-oxo-1,2-dihydroquinoline] | 0.45 | 686 | – | – | – | – |
| CCCCCOc1c(OC)ccc2cc(C(=O)NCCc3cccc(F)c3)c(=O)[nH]c12 [Example 3-20, 7-methoxy-2-oxo-8-pentyloxy-1,2-dihydroquinoline-3-carboxylic acid [2-(3-fluorophenyl)ethyl]amide] | – | – | 191 | 0.41 | 78 | – |
| CCCCCOc1cc2cc(C(=O)NCc3ccc4c(c3)OCO4)c(=O)n(C)c2cc1OC [Example 3-45, 1-methyl-7-methoxy-2-oxo-6-pentyloxy-1,2-dihydroquinoline-3-carboxylic acid (3,4-methylenedioxybenzyl)amide] | – | 381 | – | 0.032 | – | 11902 |
| CCCCCOc1cc2cc(C(=O)NCCN3CCOCC3)c(=O)n(C)c2cc1OC [Example 3-44, 1-methyl-7-methoxy-2-oxo-6-pentyloxy-1,2-dihydroquinoline-3-carboxylic acid (2-morpholinoethyl)amide] | – | 193 | – | 0.18 | – | 1075 |
| CCCCCOc1c(OC)ccc2cc(C(=O)NCCc3ccc(F)cc3)c(=O)n(C)c12 [Example 3-36, 1-methyl-7-methoxy-2-oxo-8-pentyloxy-1,2-dihydroquinoline-3-carboxylic acid [2-(4-fluorophenyl)ethyl]amide] | – | 183 | – | 0.021 | – | 8695 |
| CCCCCOc1c(OC)ccc2cc(C(=O)NCCc3ccc(O)c(OC)c3)c(=O)[nH]c12 [Example 3-21, 7-methoxy-2-oxo-8-pentyloxy-1,2-dihydroquinoline-3-carboxylic acid [2-(4-hydroxy-3-methoxyphenyl)ethyl]amide] | – | 162 | – | 0.97 | – | 167 |
| CCOc1c(OC)ccc2cc(COC(=O)Nc3ccncc3)c(=O)[nH]c12 [Example 6-2, N-pyridine-4-ylcarbamic acid (8-ethoxy-7-methoxy-2-oxo-1,2-dihydroquinoline-3-yl)methyl ester] | 0.034 | 437 | – | – | – | 12866 |
| CCCCCOc1c(OC)ccc2cc(C(=O)NCCc3ccccc3)c(=O)[nH]c12 [Example 3-23, 7-methoxy-2-oxo-8-pentyloxy-1,2-dihydroquinoline-3-carboxylic acid (2-phenylethyl)amide] | 0.2 | 39 | – | – | – | 194 |
| CCCCCOc1c(OC)ccc2cc(C(=O)NCc3ccc4c(c3)OCO4)c(=O)n(C)c12 [Example 3-42, 1-methyl-7-methoxy-2-oxo-8-pentyloxy-1,2-dihydroquinoline-3-carboxylic acid (3,4-methylenedioxybenzyl) amide] | – | 315 | – | 0.22 | – | 1430 |
| CCCCOc1c(OC)ccc2cc(C(=O)NCCc3ccncc3)c(=O)[nH]c12 [Example 3-16, 8-butoxy-7-methoxy-2-oxo-1,2-dihydroquinoline-3-carboxylic acid (2-pyridine-4-ylethyl)amide] | – | 208 | – | 0.01 | – | 20805 |
| CCCCCOc1cc2cc(C(=O)NCCc3ccc(F)cc3)c(=O)n(C)c2cc1OC [Example 3-43, 1-methyl-7-methoxy-2-oxo-6-pentyloxy-1,2-dihydroquinoline-3-carboxylic acid [2-(4-fluorophenyl)ethyl]amide] | – | 864 | – | 0.043 | – | 20093 |
| CCCCOc1c(OC)ccc2cc(CNC(=O)Cc3ccc(O)cc3)c(=O)[nH]c12 [Example 8-2, N-[(8-butoxy-7-methoxy-2-oxo-1,2-dihydroquinoline-3-yl)methyl]-(4-hydroxyphenyl)acetamide] | – | 727 | – | 0.27 | – | 2692 |
| CCCCCOc1c(OC)ccc2cc(C(=O)O)c(=O)n(C)c12 [Example 2-6, 1-methyl-7-methoxy-2-oxo-8-pentyloxy-1,2-dihydroquinoline-3-carboxylic acid] | – | 770 | – | 0.13 | – | 5923 |
| CCCCCOc1cc2cc(C(=O)NCCc3ccc(F)cc3)c(=O)[nH]c2cc1OC [Example 3-32, 7-methoxy-2-oxo-6-pentyloxy-1,2-dihydroquinoline-3-carboxylic acid [2-(4-fluorophenyl)ethyl]amide] | – | 2400 | – | 0.036 | – | 66604 |
| CCCCCOc1c(OC)ccc2cc(C(=O)NCCc3ccc(O)cc3)c(=O)[nH]c12 [Example 3-7, 7-methoxy-2-oxo-8-pentyloxy-1,2-dihydroquinoline-3-carboxylic acid [2-(4-hydroxyphenyl)ethyl]amide] | – | – | – | 0.48 | 72 | 150 |
| CCCCOc1c(OC)ccc2cc(C(=O)O)c(=O)[nH]c12 [Example 2-2, 8-butoxy-7-methoxy-2-oxo-1,2-dihydroquinoline-3-carboxylic acid] | 0.77 | 3250 | – | – | – | 42172 |
| CCCCCOc1c(OC)ccc2cc(C(=O)NCCc3ccncc3)c(=O)[nH]c12 [Example 3-1, 7-methoxy-2-oxo-8-pentyloxy-1,2-dihydroquinoline-3-carboxylic acid (2-pyridine-4-ylethyl)amide] | – | – | 372 | 0.13 ± 0.05 | 49 | – |
| COc1ccc2cc(C(=O)NCCc3ccc(F)cc3)c(=O)[nH]c2c1OC [Example 3-31, 7,8-dimethoxy-2-oxo-1,2-dihydroquinoline-3-carboxylic acid [2-(4-fluorophenyl)ethyl]amide] | 0.16 | 159 | – | – | – | 995 |
| CCCCCOc1c(OC)ccc2cc(C(=O)NCCc3ccc(O)cc3)c(=O)n(C)c12 [Example 3-41, 1-methyl-7-methoxy-2-oxo-8-pentyloxy-1,2-dihydroquinoline-3-carboxylic acid [2-(4-hydroxyphenyl)ethyl]amide] | – | – | – | 0.35 | 62 | 176 |
| CCCCCOc1c(OC)ccc2cc(C(=O)NCCc3ccc(F)cc3)c(=O)[nH]c12 [Example 3-8, 7-methoxy-2-oxo-8-pentyloxy-1,2-dihydroquinoline-3-carboxylic acid [2-(4-fluorophenyl)ethyl]amide] | – | – | – | 0.019 | 81 | 4275 |
| CCOc1c(OC)ccc2cc(CN(C)C)c(=O)[nH]c12 [Example 7-1, 3-dimethyl aminomethyl-8-ethoxy-7-methoxy-2-oxo-1,2-dihydroquinoline] | 0.17 | 3640 | – | – | – | 21432 |
| CCCCCOc1ccc2cc(C(=O)NCCc3ccc(F)cc3)c(=O)[nH]c2c1OCCCCC [Example 3-46, 7,8-dipentyloxy-2-oxo-1,2-dihydroquinoline-3-carboxylic acid [2-(4-fluorophenyl)ethyl]amide] | – | – | – | 0.026 | 228 | 8776 |
| CCCCCOc1cc2cc(C(=O)OC)c(=O)[nH]c2cc1OC [Example 1-2, 7-methoxy-2-oxo-6-pentyloxy-1,2-dihydroquinoline-3-carboxylic acid methyl ester] | – | 3670 | – | 0.014 | – | 262202 |
| CCCCCOc1cc2cc(C(=O)NCCN3CCOCC3)c(=O)[nH]c2cc1OC [Example 3-34, 7-methoxy-2-oxo-6-pentyloxy-1,2-dihydroquinoline-3-carboxylic acid (2-morpholinoethyl) amide] | – | – | – | 0.011 | – | 15672 |
| CCCCOc1c(OC)ccc2cc(CNC(=O)Nc3ccc(F)cc3)c(=O)[nH]c12 [Example 8-1, N-[(8-butoxy-7-methoxy-2-oxo-1,2-dihydroquinoline-3-yl)methyl]-N′-(4-fluorophenyl)urea] | 0.44 | 440 | – | – | – | 1000 |
| CCCCCOc1cc2cc(C(=O)OC)c(=O)n(C)c2cc1OC [Example 1-4, 1-methyl-7-methoxy-2-oxo-6-pentyloxy-1,2-dihydroquinoline-3-carboxylic acid methyl ester] | – | 1630 | – | 4.49 | – | 362 |
| CCOc1c(OC)ccc2cc(C(=O)NCCc3ccncc3)c(=O)[nH]c12 [Example 3-6, 8-ethoxy-7-methoxy-2-oxo-1,2-dihydroquinoline-3-carboxylic acid (2-pyridine-4-ylethyl)amide] | – | 609 | – | – | – | – |
| CCOc1c(OC)ccc2cc(CN3CCOCC3)c(=O)[nH]c12 [Example 7-3, 8-ethoxy-7-methoxy-3-morpholinomethyl-2-oxo-1,2-dihydroquinoline] | 0.062 | 666 | – | – | – | 10735 |
| CCCCCOc1c(OC)ccc2cc(C(=O)NCCc3ccccc3F)c(=O)[nH]c12 [Example 3-19, 7-methoxy-2-oxo-8-pentyloxy-1,2-dihydroquinoline-3-carboxylic acid [2-(2-fluorophenyl)ethyl]amide] | – | – | – | 0.18 | 49 | 272 |
